Each compound was assayed against T1, PDK-1 (Homo sapiens, UniProt O15530) (assay: PDK-1 kinase inhibition ELISA assay (phosphorylation of His6-tagged SGK1 S422D by PDK-1)). Conditions: not given.
T1 sequence (O15530 1-556): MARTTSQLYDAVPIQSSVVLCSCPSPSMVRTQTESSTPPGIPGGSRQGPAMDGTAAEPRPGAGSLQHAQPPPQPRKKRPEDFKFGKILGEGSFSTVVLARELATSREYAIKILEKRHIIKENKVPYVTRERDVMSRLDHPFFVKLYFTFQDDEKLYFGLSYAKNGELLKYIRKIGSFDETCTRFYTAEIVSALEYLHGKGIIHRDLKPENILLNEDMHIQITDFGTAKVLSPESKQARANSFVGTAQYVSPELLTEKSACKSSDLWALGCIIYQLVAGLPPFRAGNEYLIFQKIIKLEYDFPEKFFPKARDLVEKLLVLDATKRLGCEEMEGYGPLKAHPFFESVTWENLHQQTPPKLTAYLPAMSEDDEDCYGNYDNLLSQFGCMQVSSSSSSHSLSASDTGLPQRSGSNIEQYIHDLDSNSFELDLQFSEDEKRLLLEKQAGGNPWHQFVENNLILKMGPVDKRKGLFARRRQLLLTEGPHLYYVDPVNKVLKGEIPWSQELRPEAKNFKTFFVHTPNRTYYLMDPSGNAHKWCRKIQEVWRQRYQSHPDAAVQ
Assay type: biochemical

SMILES | IC50 [nM]
COCCNc1cc2c(cnc3cc(OCCOC)c(OC)cc32)c(N)n1 [Ia-55, 9-methoxy-8-(2-methoxyethoxy)-N^2-(2-methoxyethyl)benzo[c]-2,7-naphthyridine-2,4-diamine] | 7490

Same assay, conditions: PDK-1 ELISA, Table 11; read-out: Average IC50

SMILES | IC50 [nM]
COc1cc2ncc3c(N)nc(-c4cncc(OC[C@@H](N)CSc5ccccn5)c4)cc3c2cc1OC [Ib-159, 2-(5-{[(2R)-2-amino-3-(pyridin-2-ylthio)propyl]oxy}pyridin-3-yl)-8,9-dimethoxybenzo[c][2,7]naphthyridin-4-amine] | 3
Nc1nc(-n2ccnc2)cc2c1cnc1cc(Br)ccc12 [Ia-37, 8-Bromo-2-(1H-imidazol-1-yl)benzo[c]-2,7-naphthyridin-4-amine] | 527
CCCCNC(=N)c1cncc(-c2cc3c(cnc4cc(OC)c(OC)cc43)c(N)n2)c1 [Ib-268, 5-(4-Amino-8,9-dimethoxybenzo[c][2,7]naphthyridin-2-yl)-N-butylnicotinimidamide] | 1000
COc1cc2ncc3c(N)nc(-c4cncc(OC[C@@H](N)CNCC5(c6ccccc6)CC5)c4)cc3c2cc1OC [Ib-106, (2S)-3-{[5-(4-amino-8,9-dimethoxybenzo[c][2,7]naphthyridin-2-yl)pyridin-3-yl]oxy}-N1-[(1-phenylcyclopropyl)methyl]propane-1,2-diamine] | 32
COc1cc2ncc3c(N)nc(-c4cncc(Nc5ccc(C(=O)Nc6ccccc6)cc5)c4)cc3c2cc1OC [Ib-193, 4-{[5-(4-amino-8,9-dimethoxybenzo[c][2,7]naphthyridin-2-yl)pyridin-3-yl]amino}-N-phenylbenzamide] | 506
COc1cc2ncc3c(N)nc(-c4cncc(OC[C@@H](N)CN5CCN(c6ccncc6)CC5)c4)cc3c2cc1OC [Ib-107, 2-(5-{[(2S)-2-amino-3-(4-pyridin-4-ylpiperazin-1-yl)propyl]oxy}pyridin-3-yl)-8,9-dimethoxybenzo[c][2,7]naphthyridin-4-amine] | 42
COc1cc2ncc3c(N)nc(-c4cncc(OC[C@@H](N)COc5nc6ccccc6s5)c4)cc3c2cc1OC [Ib-150, 2-(5-{[(2R)-2-amino-3-(1,3-benzothiazol-2-yloxy)propyl]oxy}pyridin-3-yl)-8,9-dimethoxybenzo[c][2,7]naphthyridin-4-amine] | 6
COc1cc2ncc3c(N)nc(-c4cncc(OC[C@@H](N)CNCC5CCCCC5)c4)cc3c2cc1OC [Ib-95, (2S)-3-{[5-(4-amino-8,9-dimethoxybenzo[c][2,7]naphthyridin-2-yl)pyridin-3-yl]oxy}-N1-(cyclohexylmethyl)propane-1,2-diamine] | 53
CCOc1cc2ncc3c(N)nc(-c4ccc(Br)cc4)cc3c2cc1OCC [Ia-47, 2-(4-bromophenyl)-8,9-diethoxybenzo[c]-2,7-naphthyridin-4-amine] | > 20000
COc1cc2ncc3c(N)nc(-c4cncc(C#CCN)c4)cc3c2cc1OC [Ib-252, 2-[5-(3-aminoprop-1-yn-1-yl)pyridin-3-yl]-8,9-dimethoxybenzo[c][2,7]naphthyridin-4-amine] | 53
COc1cc2ncc3c(N)nc(-c4cccc(C(=O)NCc5cccnc5)c4)cc3c2cc1OC [Ib-248, 3-(4-amino-8,9-dimethoxybenzo[c][2,7]naphthyridin-2-yl)-N-(pyridin-3-ylmethyl)benzamide] | 1000
COc1cc2ncc3c(N)nc(-c4cncc(Oc5ccncc5N)c4)cc3c2cc1OC [Ib-170, 2-{5-[(3-Aminopyridin-4-yl)oxy]pyridin-3-yl}-8,9-dimethoxybenzo[c][2,7]naphthyridin-4-amine] | 115
COc1cc2ncc3c(N)nc(-c4cncc(Nc5cccc(C#N)c5)c4)cc3c2cc1OC [Ib-179, 3-{[5-(4-amino-8,9-dimethoxybenzo[c][2,7]naphthyridin-2-yl)pyridin-3-yl]amino}benzonitrile] | > 700
COc1cc2ncc3c(N)nc(-c4cncc(OC[C@@H](N)CNC5CCCC5)c4)cc3c2cc1OC [Ib-101, (2S)-3-{[5-(4-amino-8,9-dimethoxybenzo[c][2,7]naphthyridin-2-yl)pyridin-3-yl]oxy}-N1-cyclopentylpropane-1,2-diamine] | 92
COc1cc2ncc3c(N)nc(-c4cncc(OC[C@@H](N)CNC(C)(C)c5ccncc5)c4)cc3c2cc1OC [Ib-108, (2S)-3-{[5-(4-amino-8,9-dimethoxybenzo[c][2,7]naphthyridin-2-yl)pyridin-3-yl]oxy}-N1-(1-methyl-1-pyridin-4-ylethyl)propane-1,2-diamine] | 7
COc1cc2ncc3c(N)nc(-c4cncc(OC[C@@H](N)CSc5nccn5C)c4)cc3c2cc1OC [Ib-161, 2-[5-({(2R)-2-amino-3-[(1-methyl-1H-imidazol-2-yl)thio]propyl}oxy)pyridin-3-yl]-8,9-dimethoxybenzo[c][2,7]naphthyridin-4-amine] | 3
COc1cc2ncc3c(N)nc(-c4cncc(Nc5cccnc5)c4)cc3c2cc1OC [Ib-200, 8,9-dimethoxy-2-[5-(pyridin-3-ylamino)pyridin-3-yl]benzo[c][2,7]naphthyridin-4-Amine] | 158

SMILES | IC50 [nM]
COc1cc2ncc3c(N)nc(-c4cncc(OC[C@@H](N)CN5CCCC5)c4)cc3c2cc1OC [Ib-110, 2-(5-{[(2S)-2-amino-3-pyrrolidin-1-ylpropyl]oxy}pyridin-3-yl)-8,9-dimethoxybenzo[c][2,7]naphthyridin-4-amine] | 14
COc1cc2ncc3c(N)nc(-c4cncc(OC[C@@H](N)CNc5ccccc5)c4)cc3c2cc1OC [Ib-80, (2S)-3-{[5-(4-amino-8,9-dimethoxybenzo[c][2,7]naphthyridin-2-yl)pyridin-3-yl]oxy}-N^1-phenylpropane-1,2-diamine] | 3
COc1cc2ncc3c(N)nc(-c4cncc(OC[C@@H](N)CNCCc5ccncc5)c4)cc3c2cc1OC [Ib-97, (2S)-3-{[5-(4-amino-8,9-dimethoxybenzo[c][2,7]naphthyridin-2-yl)pyridin-3-yl]oxy}-N1-(2-pyridin-4-ylethyl)propane-1,2-diamine] | 24
COc1cc2ncc3c(N)nc(-c4cncc(OC[C@@H](N)CSc5ccccc5)c4)cc3c2cc1OC [Ib-162, 2-(5-{[(2R)-2-amino-3-(phenylthio)propyl]oxy}pyridin-3-yl)-8,9-dimethoxybenzo[c][2,7]naphthyridin-4-amine] | 4
COc1cc2c(cc1OCC1CCN(C)CC1)ncc1c(N)nc(-c3ccncc3)cc12 [Ia-22, 9-Methoxy-8-[(1-methylpiperidin-4-yl)methoxy]-2-pyridin-4-ylbenzo[c]-2,7-naphthyridin-4-amine] | 6920
COc1cc2ncc3c(N)nc(-c4cncc(OC[C@@H](N)CNc5ccc(F)cc5F)c4)cc3c2cc1OC [Ib-85, (2S)-3-{[5-(4-amino-8,9-dimethoxybenzo[c][2,7]naphthyridin-2-yl)pyridin-3-yl]oxy}-N1-(2,4-difluorophenyl)propane-1,2-diamine] | 5
COCCOc1cc2ncc3c(N)nc(N4CCOCC4)cc3c2cc1OC [Ia-57, 9-Methoxy-8-(2-methoxyethoxy)-2-morpholin-4-ylbenzo[c]-2,7-naphthyridin-4-amine] | 6420
COc1cc2ncc3c(N)nc(-c4cncc(OC[C@@H](N)CNc5ccc(N)cc5)c4)cc3c2cc1OC [Ib-111, N-[(2S)-2-amino-3-{[5-(4-amino-8,9-dimethoxybenzo[c][2,7]naphthyridin-2-yl)pyridin-3-yl]oxy}propyl]benzene-1,4-diamine] | 81
COCCOc1cc2ncc3c(N)nc(N4CCC(C)CC4)cc3c2cc1OC [Ia-50, 9-methoxy-8-(2-methoxyethoxy)-2-(4-methylpiperidin-1-yl)benzo[c]-2,7-naphthyridin-4-amine] | 2440
COCCOc1cc2ncc3c(N)nc(N4CCC(CCO)CC4)cc3c2cc1OC [Ia-51, 2-{1-[4-amino-9-methoxy-8-(2-methoxyethoxy)benzo[c]-2,7-naphthyridin-2-yl]piperidin-4-yl}ethanol] | 3720
COCCOc1cc2ncc3c(N)nc(N4CCCCC4C)cc3c2cc1OC (stereo not shown) [Ia-43, 9-methoxy-8-(2-methoxyethoxy)-2-(2-methylpiperidin-1-yl)benzo[c]-2,7-naphthyridin-4-amine] | 2450
COCCOc1cc2ncc3c(N)nc(OC)cc3c2cc1OC [Ia-58, 2,9-Dimethoxy-8-(2-methoxyethoxy)benzo[c]-2,7-naphthyridin-4-amine] | 1280
COc1cc2ncc3c(N)nc(-c4cncc(Nc5ccccc5N5CCOCC5)c4)cc3c2cc1OC [Ib-184b, 8,9-dimethoxy-2-{5-[(2-morpholin-4-ylphenyl)amino]pyridin-3-yl}benzo[c][2,7]naphthyridin-4-amine] | 74
COCCOc1cc2ncc3c(N)nc(N(C)C4CCN(C)C4)cc3c2cc1OC (stereo not shown) [Ia-52, 9-methoxy-8-(2-methoxyethoxy)-N2-methyl-N^2-(1-methylpyrrolidin-3-yl)benzo[c]-2,7-naphthyridine-2,4-diamine] | 3280
COc1cc2ncc3c(N)nc(-c4ccc5[nH]ncc5c4)cc3c2cc1OC [Ib-249, 2-(1H-indazol-5-yl)-8,9-dimethoxybenzo[c][2,7]naphthyridin-4-amine] | 205
COc1cc2ncc3c(N)nc(-c4cncc(OC[C@@H](N)CN5CCC(=O)CC5)c4)cc3c2cc1OC [Ib-4, 1-[(2S)-2-amino-3-{[5-(4-amino-8,9-dimethoxybenzo[c]-2,7-naphthyridin-2-yl)pyridin-3-yl]oxy}propyl]piperidin-4-one] | 29

Reference: patent publication US20080293712A1, “Benzo[C][2,7]Naphtyridine Derivatives, Methods of Making Thereof and Methods of Use Thereof” (WYETH, priority 2007, published 2008)
